Measured values taken from US6326526A, “Melatonin receptor-deficient mice and uses thereof” (Bristol-Myers Squibb Company, priority 2000, dated 2001).

Experiments:
[1] = tested on: SCN slices from Mel1a receptor-deficient (homozygous mutant) mice (multiunit activity); settings: 0.1 to 100 nM, CT 9.5-11.5 and CT 4.5-6.5, relative to vehicle
Protocol: Adult male wild-type and homozygous mutant mice were housed in LD 12:12 for a minimum of three weeks prior to experimentation. After the adaptation period, the mice were killed 2.0 to 4.5 hours after lights-on, and brains were rapidly dissected and placed into ACSF medium containing 116.3 mM NaCl, 5,4 mM KCl, 1.0 mM NaH2 PO4, 26.2 mM NaHCO3, 1.8 mM CaCl2, 0.8 mM MgSO4, 24.6 mM dextrose, and 5 mg/l Gentamicin sulphate, pH 7.5. A block of tissue containing the hypothalamus was dissected from the brain and transferred to a manual tissue chopper where coronal hypothalamic brain slices (400 μm in thickness) containing the SCN were prepared. […] This electrical activity was amplified, and the number of electrical events was counted with a window discriminator (Fintronics Inc., Orange, Conn.). Data were collected and analyzed by computer, using Brainwave™ (Data Waver Technologies, Broomfield, Colo.) or Spike 2™ (Cambridge Electronic Design, Cambridge, Mass.) software. The average number of electrical events in successive 1-minute intervals was determined and plotted against the circadian time of recording. […]
(§1) The maximum percent inhibition of SCN neuronal firing during each 30 minutes application of melatonin or vehicle was calculated with respect to the average multiunit firing rate during the 5 minute period prior to the first application of a series, and plotted.

[2] = tested on: SCN slices from wild-type mice (multiunit activity); assay: SCN multiunit recordings, melatonin-induced inhibition of neuronal firing, wild-type mice; type: cell-based, mouse
Protocol: Adult male wild-type and homozygous mutant mice were housed in LD 12:12 for a minimum of three weeks prior to experimentation. After the adaptation period, the mice were killed 2.0 to 4.5 hours after lights-on, and brains were rapidly dissected and placed into ACSF medium containing 116.3 mM NaCl, 5,4 mM KCl, 1.0 mM NaH2 PO4, 26.2 mM NaHCO3, 1.8 mM CaCl2, 0.8 mM MgSO4, 24.6 mM dextrose, and 5 mg/l Gentamicin sulphate, pH 7.5. A block of tissue containing the hypothalamus was dissected from the brain and transferred to a manual tissue chopper where coronal hypothalamic brain slices (400 μm in thickness) containing the SCN were prepared. Slices were placed in a Haas-type brain slice chamber (Haas H. L., et al., J. Neurosci. Methods 1:323-325, 1979; Medical Systems Corp.) and gauze strips placed over the slices in the vicinity of the SCN to raise the fluid level above the slices. They were continually superfused with ACSF medium warmed to 37° C. To record multiple-unit SCN electrical activity, a 76 μm-diameter, teflon-coated platinum-iridium wire electrode was lowered into the brain slice in the SCN (Bouskila, Y., and Dudek, F. E., Proc. Natl. Acad. Sci. USA 90:3207-3210, 1993). This electrical activity was amplified, and the number of electrical events was counted with a window discriminator (Fintronics Inc., Orange, Conn.). Data were collected and analyzed by computer, using Brainwave™ (Data Waver Technologies, Broomfield, Colo.) or Spike 2™ (Cambridge Electronic Design, Cambridge, Mass.) software. The average number of electrical events in successive 1-minute intervals was determined and plotted against the circadian time of recording. Slices were excluded if their viability was compromised on day 2 of recording.
Melatonin was prepared as a 100 μM stock solution in 100% ethanol, which was serially diluted with ACSF medium to yield four melatonin concentrations between 0.1 and 100 nM. A stock solution of vehicle (100% ethanol) was serially diluted with ACSF medium to yield the corresponding vehicle for each melatonin concentration. Melatonin or vehicle was applied by gravity flow in the bath for 30 minutes at each concentration before switching to the next solution. […] In the mouse experiments at circadian time 4.5-6.5 where only the single highest vehicle concentration was used as a comparator, the vehicle was applied for 30 minutes prior to the application of melatonin. A programmable automatic solution switching system (AutoMate Scientific Inc., Oakland, Calif.) was employed to time solution applications.
as §1

[3] = tested on: SCN slices from Mel1a receptor-deficient (homozygous mutant) mice (single-unit electrical activity rhythm); assay: SCN single unit recordings, phase shift of electrical activity rhythm, Mel1a receptor-deficient mice; type: cell-based, mouse
Protocol: (§2) Mice were housed in LD 12:12 for three weeks prior to experimentation. After adaptation, mice were killed by decapitation during the light phase of the LD cycle. Hypothalamic slices (500 μm) were prepared using a tissue chopper and incubated at 37° C., as previously described (Liu, C., and Gillette, M. U., J. Neurosci. 16:744-751, 1996). For most experiments, perfusion was discontinued during the 1-hour treatment with melatonin or vehicle (0.0001% ethanol in perfusion medium). For the pertussis toxin experiment, perfusion was discontinued for 6 hours, ending after the vehicle or melatonin treatment. At the end of treatment, the medium in the chamber was replaced, and perfusion was resumed with melatonin-free medium. Single units from the SCN were recorded the following day with glass microelectrodes (Liu, C., and Gillette, M. U., J. Neurosci. 16:744-751, 1996). Signals were amplified, filtered to a band width of 0.3-3 kHz, and stored (MacADIO II, GW Instruments, Somerville, Mass.). Voltage pulses exceeding preset recording threshold were detected on-line by custom software. Off-line analysis assigned a cluster of spikes of similar amplitude and width to each unit recorded (Meister, M., et al., J. Neurosci. Methods 51:95-101, 1994). Firing rate data were analyzed as previously described to determine the time-of-peak in the activity rhythm (Liu, C., and Gillette, M. U., J. Neurosci. 16:744-751, 1996).

[4] = tested on: SCN slices from wild-type mice (single-unit electrical activity rhythm); assay: SCN single unit recordings, phase shift of electrical activity rhythm, wild-type mice; type: cell-based, mouse
Protocol: as §2

[5] = tested on: rat SCN single-unit activity rhythm; settings: rats; read-out: EC50 of phase-shifting effect on the single-unit activity rhythm; cited from earlier work

COc1ccc2[nH]cc(CCNC(C)=O)c2c1 [melatonin]
Inhibition of SCN multiunit activity [1]: unable to significantly inhibit SCN multiunit activity | inhibition at 0.001 µM ([2]; Mus musculus, 1 nM, at night CT 18, wild-type C57BL/6 mice, n=8): 33.9 ± 3.9% | EC50 ([2]; Mus musculus, 0.1-100 nM, 30 min each, CT 4.5-6.5, day 2 in culture): 0.412 nM | Percent inhibition of SCN firing rate ([2]; increasing melatonin 0.1-100 nM, CT 4.5-6.5 of day 2 (FIG. 4A)): over 30% | Percent inhibition of SCN firing rate ([2]; melatonin 0.1-100 nM, CT 9.5-11.5 of day 1, plateau (FIG. 4B)): about 13% | Circadian time of the activity peak [3]: 6.6 ± 0.1 h | Phase of the firing rhythm peak [3]: not shifted | Phase shift (phase advance) in the electrical activity rhythm peak ([3]; 1 nM, CT 9.5-10.5): approximately 4 hour | Phase advance in circadian phase ([3]; 1 nM, CT 9.5-10.5, after 5-hour static bath of normal medium, n=3): 3.2 ± 0.1 h | Phase advance in circadian phase ([4]; application at CT 9.5-10.5, preliminary studies of wildtype mice): approximately 4 hour | Phase shift in the electrical activity rhythm ([4]; application from CT 5.5-6.5): did not elicit significant phase shifts | CT of activity peak ([4]; application from CT 5.5-6.5, n=3): 6.8 ± 0.3 h | EC50 [5]: < 0.1 nM
